From ChEMBL document CHEMBL3272125, “Antiprotozoal thiazoles. 2. 2-(5-Nitro-2-furyl-, thiazolyl-, and 1-methylimidazolyl-)thiazoles” (J Med Chem, 1977) come the findings set out here.

The subject of series [1] is Trypanosoma cruzi. The series can be described thus: Antiprotozoal activity against Trypanosoma cruzi BH infected in CFW mouse assessed as increase in host mean survival time at 50 mg/kg, ip administered daily for 5 days starting 4 hrs post-parasite infection (reference value: 14 +/- 1 days). It is filed as functional. The note with it: route intraperitoneal.
Series [2] relates to Trypanosoma cruzi. The series can be described thus: Antiprotozoal activity against Trypanosoma cruzi BH infected in CFW mouse assessed as increase in host mean survival time at 10 mg/kg, ip administered daily for 5 days starting 4 hrs post-parasite infection (reference value: 14 +/- 1 days). The format is functional. The note with it: route intraperitoneal.
Series [3] relates to Trypanosoma cruzi. The experiment in a line: Antiprotozoal activity against Trypanosoma cruzi BH infected in CFW mouse assessed as increase in host mean survival time at 100 mg/kg, po administered daily for 5 days starting 4 hrs post-parasite infection (reference value: 14 +/- 1 days). It is filed as functional.
The test system of series [4] is Trypanosoma cruzi. The experiment in a line: Antiprotozoal activity against Trypanosoma cruzi BH infected in CFW mouse assessed as increase in host mean survival time at 25 mg/kg, ip administered daily for 5 days starting 4 hrs post-parasite infection (reference value: 14 +/- 1 days). It is filed as functional. The note with it: route intraperitoneal.
Series [5] can be described thus: Acute toxicity in ip dosed CFW mouse administered daily for 5 days. It is filed as organism-based. The note with it: in vivo.
In series [6] the test system is Trypanosoma cruzi. The series can be described thus: Antiprotozoal activity against Trypanosoma cruzi BH infected in CFW mouse assessed as increase in host mean survival time at 100 mg/kg, ip administered daily for 5 days starting 4 hrs post-parasite infection (reference value: 14 +/- 1 days). The format is functional. The note with it: route intraperitoneal.
Series [7] can be described thus: Acute toxicity in po dosed CFW mouse administered daily for 5 days. The format is organism-based. The note with it: in vivo.
Series [8] concerns Trypanosoma cruzi. The experiment in a line: Antiprotozoal activity against Trypanosoma cruzi BH infected in CFW mouse assessed as increase in host mean survival time at 50 mg/kg, po administered daily for 5 days starting 4 hrs post-parasite infection (reference value: 14 +/- 1 days). The format is functional.
The test system of series [9] is Trypanosoma cruzi. The series can be described thus: Antiprotozoal activity against Trypanosoma cruzi BH infected in CFW mouse assessed as increase in host mean survival time at 5 mg/kg, ip administered daily for 5 days starting 4 hrs post-parasite infection (reference value: 14 +/- 1 days). The note with it: route intraperitoneal. It is filed as functional.
In series [10] the test system is Trypanosoma cruzi. The series can be described thus: Antiprotozoal activity against Trypanosoma cruzi BH infected in CFW mouse assessed as increase in host mean survival time at 200 mg/kg, po administered daily for 5 days starting 4 hrs post-parasite infection (reference value: 14 +/- 1 days). The format is functional.
The subject of series [11] is Trypanosoma cruzi. The series can be described thus: Antiprotozoal activity against Trypanosoma cruzi BH infected in CFW mouse assessed as increase in host mean survival time at 25 mg/kg, po administered daily for 5 days starting 4 hrs post-parasite infection (reference value: 14 +/- 1 days). It is filed as functional.
In series [12] the test system is Trypanosoma cruzi. The experiment in a line: Antiprotozoal activity against Trypanosoma cruzi Y infected in CFW mouse assessed as increase in host mean survival time at 25 mg/kg, po administered daily for 10 days starting 4 hrs post-parasite infection. It is filed as functional.
Series [13] deals with Trypanosoma cruzi. The series can be described thus: Antiprotozoal activity against Trypanosoma cruzi Peru infected in CFW mouse assessed as increase in host mean survival time at 5 mg/kg, po administered daily for 10 days starting 4 hrs post-parasite infection. It is filed as functional.
For series [14], the system named is Trypanosoma cruzi. The experiment in a line: Antiprotozoal activity against Trypanosoma cruzi Peru infected in CFW mouse assessed as increase in host mean survival time at 25 mg/kg, po administered daily for 10 days starting 4 hrs post-parasite infection. It is filed as functional.
Series [15] has as its system Trypanosoma cruzi. The series can be described thus: Antiprotozoal activity against Trypanosoma cruzi Peru infected in CFW mouse assessed as increase in host mean survival time at 10 mg/kg, po administered daily for 10 days starting 4 hrs post-parasite infection. The format is functional.
For series [16], the system named is Trypanosoma cruzi. The series can be described thus: Antiprotozoal activity against high myocardial tissue infiltration leishmanial form of Trypanosoma cruzi BHC/10 infected in CFW mouse assessed as increase in host mean survival time at 5 mg/kg, po administered daily for 10 days starting 4 hrs post-parasite infection. The format is functional.
Series [17] deals with Trypanosoma cruzi. The series can be described thus: Antiprotozoal activity against Trypanosoma cruzi BH infected in CFW mouse assessed as increase in host mean survival time at 10 mg/kg, po administered daily for 5 days starting 4 hrs post-parasite infection (reference value: 14 +/- 1 days). The format is functional.
The test system of series [18] is Trypanosoma cruzi. The experiment in a line: Antiprotozoal activity against Trypanosoma cruzi Y infected in CFW mouse assessed as increase in host mean survival time at 5 mg/kg, po administered daily for 10 days starting 4 hrs post-parasite infection. The format is functional.
Series [19] has as its system Trypanosoma cruzi. The series can be described thus: Antiprotozoal activity against high myocardial tissue infiltration leishmanial form of Trypanosoma cruzi BHC/10 infected in CFW mouse assessed as increase in host mean survival time at 25 mg/kg, po administered daily for 10 days starting 4 hrs post-parasite infection. It is filed as functional.
The subject of series [20] is Trypanosoma cruzi. The series can be described thus: Antiprotozoal activity against Trypanosoma cruzi BH infected in CFW mouse assessed as increase in host mean survival time at 5 mg/kg, po administered daily for 5 days starting 4 hrs post-parasite infection (reference value: 14 +/- 1 days). It is filed as functional.
For series [21], the system named is Trypanosoma cruzi. The series can be described thus: Antiprotozoal activity against high myocardial tissue infiltration leishmanial form of Trypanosoma cruzi BHC/10 infected in CFW mouse assessed as increase in host mean survival time at 10 mg/kg, po administered daily for 10 days starting 4 hrs post-parasite infection. The format is functional.
The test system of series [22] is Trypanosoma cruzi. The experiment in a line: Antiprotozoal activity against Trypanosoma cruzi Y infected in CFW mouse assessed as increase in host mean survival time at 10 mg/kg, po administered daily for 10 days starting 4 hrs post-parasite infection. It is filed as functional.

In general, LD50 refers to the dose expected to kill half of the subjects tested. For `O=[N+]([O-])c1ccc(-c2nc(/C=N/N3CCSCC3)cs2)o1`, the MST in series [1] came to 60 days; in series [2], 0 days; in [3], 4 days; in series [4], 18 days; in [6], 60 days; in series [8], 0 days. The MST in series [9] worked out at 0 days; in [10] it was 18 days. For the same compound, the LD50 at 120 h in [5] was more than 800 mg/kg; in [7] it was more than 1600 mg/kg.

With `Cn1c([N+](=O)[O-])cnc1-c1nc(/C=N/N2CCOCC2)cs1`, the MST in series [1] amounted to 7 days; in series [2], 0 days; in series [11], 0 days; in [4] it was 4 days; in series [6], 60 days; in series [8], 0 days. The LD50 at 120 h in [5] was more than 800 mg/kg; in series [7] it was more than 1600 mg/kg.

On to `CC1CS(=O)(=O)CCN1/N=C/c1ccc([N+](=O)[O-])o1` (stereo unspecified) [NIFURTIMOX], for which the MST in series [12] is 40 days; in series [1], 60 days; in [2] it was 60 days; in series [11], 60 days; in series [13], 0 days; in series [3], 60 days. Moreover, the MST turned out to be 60 days in [4]; 60 days in series [14]; 60 days in series [6]; 60 days in series [15]; 3 days in [16]; 4 days in series [17]. Further, the MST in [18] was determined as 0 days; in series [19], 6.5 days; in series [8] it was 60 days; in series [20], 0 days; in [21], 5.5 days; in series [22], 8 days. Moreover, the MST in series [9] amounted to 2.5 days; in [10] it was 60 days.

For the compound `O=[N+]([O-])c1cnc(-c2nc(/C=N/N3CCCCC3)cs2)s1`, the LD50 at 120 h in series [5] is more than 800 mg/kg; in series [7], more than 1600 mg/kg. The MST in series [6] and in series [10] was 0 days each time.

Consider `O=[N+]([O-])c1ccc(-c2nc(/C=N/N3CCS(=O)(=O)CC3)cs2)o1`, for which the MST in [1] was found to be 44 days; in [2], 5 days; in series [11] it was 6 days; in series [3], 3 days; in series [4], 18.5 days; in series [6], 60 days. The MST stood at 0 days in series [17], 7 days in [8], 0 days in series [9] and 5 days in series [10]. Further, the LD50 at 120 h is more than 800 mg/kg in [5] and more than 1600 mg/kg in series [7].

As for `O=[N+]([O-])c1cnc(-c2nc(/C=N/N3CCOCC3)cs2)s1`, the LD50 at 120 h was more than 800 mg/kg in series [5] and more than 1600 mg/kg in [7]. In addition, the MST came out at 4 days in series [6] and 0 days in [10].

As for `O=[N+]([O-])c1cnc(-c2nc(/C=N/N3CCSCC3)cs2)s1`, the MST was 3 days in series [1]; 0 days in [3]; 0 days in series [4]; 4 days in series [6]; 1 days in series [10]. Besides, the values for the LD50 at 120 h in [5] and in series [7] were more than 800 mg/kg and more than 1600 mg/kg, respectively.

For the compound `Cn1c([N+](=O)[O-])cnc1-c1nc(/C=N/N2CCS(=O)(=O)CC2)cs1`, the MST turned out to be 60 days in series [12]; 60 days in series [1]; 60 days in [2]; 60 days in series [11]; 35 days in series [13]; 60 days in series [3]. Further, the MST in series [4] was found to be 60 days; in [14] it was 60 days; in series [6], 60 days; in [15], 60 days; in series [16] it was 4 days; in series [17] it was 14 days. The MST stood at 37 days in series [18]; 22 days in series [19]; 60 days in [8]; 15 days in series [20]; 12 days in series [21]; 60 days in series [22]. Also, the MST in series [9] was determined as 18.5 days; in [10] it was 60 days. For the same compound, the LD50 at 120 h in series [5] is more than 800 mg/kg; in [7], more than 1600 mg/kg.

Turning to `O=[N+]([O-])c1ccc(-c2nc(/C=N/N3CCOCC3)cs2)o1`, the MST in series [1] is 60 days; in [2], 27 days; in [11] it was 19.5 days; in [3], 60 days; in series [4], 60 days; in [6] it was 60 days. In addition, the MST came out at 0 days in series [17]; 41 days in series [8]; 0 days in series [20]; 0 days in series [9]; 60 days in series [10]. The LD50 at 120 h in series [5] is more than 800 mg/kg; in series [7], more than 1600 mg/kg.

For `O=[N+]([O-])c1ccc(-c2nc(/C=N/N3CCOCC3)cs2)s1`, the MST in series [1] is 27 days; in series [2] it was 0 days; in series [11], 0 days; in [3] it was 0 days; in [4] it was 12 days; in series [6] it was 60 days. The MST stood at 0 days in series [17]; 0 days in [8]; 0 days in [20]; 0 days in [9]; 60 days in [10]. In addition, the LD50 at 120 h was more than 800 mg/kg in series [5] and more than 1600 mg/kg in [7].

On to `O=[N+]([O-])c1ccc(-c2nc(/C=N/N3CCCCCC3)cs2)o1`, for which the MST in series [1] was 7 days; in [3], 0 days; in series [4], 4 days; in series [6] it was 39 days; in series [10], 2 days. Also, the results for the LD50 at 120 h in series [5] and in [7] were more than 800 mg/kg and more than 1600 mg/kg, respectively.

For `O=[N+]([O-])c1ccc(-c2nc(/C=N/N3CCCCC3)cs2)o1`, the MST stood at 60 days in series [1]; 3 days in [2]; 0 days in series [11]; 39 days in series [3]; 42 days in [4]; 60 days in series [6]. Besides, the figures for the MST in [8], in series [9] and in series [10] were 8 days, 0 days and 32 days, respectively. The LD50 at 120 h in series [5] was more than 800 mg/kg; in [7] it was more than 1600 mg/kg.
